The values below come from US8003595B2, “Amino acid sequences facilitating penetration of a substance of interest into cells and/or cell nuclei” (Cellectis, priority 2000, dated 2011).

Where two headings read alike, the source gives them in different places. Marks after values point to notes of the source that are not given here. Where no end group is shown, it is not given here.

In assay [1] the test system is H1299 cells. Description: Penetration of peptide-cytochrome C conjugates (microscopy). The assay is classed as cell-based, human. Also on record: key: +++: intense; ++: positive; +: slightly positive; −: negative. To be noted: 4 hours. As to the method: The penetration of the peptide-cytochrome C conjugates is evaluated with some conjugates prepared with peptides having a biotin on the N-terminal side. H1299 cells are cultivated in the presence of the different (biotinylated) peptide-cytochrome C conjugates at decreasing concentrations (100 to 25 μg/ml) in the culture medium for 4 hours at 37° C. At the end of the culture, the cells are washed three times with PBS, then fixed 15 minutes in ethanol at −20°. The penetration of the peptide-biotin-cytochrome C conjugate is evaluated after incubation for 60 minutes with some avidin coupled with peroxidase. The cells are then washed with PBS, and the activity of the peroxidase is indicated by diaminobenzidine in the presence of H2O2.
The penetration dependent on the concentration of conjugates in the culture medium is evaluated under the microscope by the intensity of the coloration expressed by crosses. Table 24 indicates the penetration of the peptide-cytochrome C conjugates in the cells.

In assay [2] the test system is H1299 cells. Description: Growth inhibition by peptide-cytochrome C conjugates (MTT). The assay is classed as cell-based, human. As to the method: (§1) H1299 or HT29 cells (3×10^4 cells/well) are cultivated in 96-well plates for 48 hours at 37° C. in the complete culture medium RPMI with decreasing concentrations (200-3 μg/ml) of natural cytochrome C or cytochrome C conjugated with peptides added, and the culture is continued for 48 hours.
(§2) Table 25 gives the inhibition of growth of the cells by the […].

Assay [3] has as its system HT29 cells. Described as above. The assay is classed as cell-based, human. The procedure: as §1, §2
For assay [4], the system named is Enterococcus faecalis (ATCC 29212). Description: microbe, parasite or virus in culture. The assay is classed as cell-based. As to conditions: ATCC 29212. The procedure:
(§3) The gram-positive bacterial strains are: Enterococcus faecalis (ATCC 29212), and Staphylococcus aureus (ATCC 25923) and the gram-negative strains are: Escherichia coli (ATCC 25922), Pseudomonas aeruginosa (ATCC 27853) and Salmonella typhimurim (clinical isolate), Salmonella typhiTy2 (WHO). The bacteria are cultured with shaking all night at 37° C., then recultured at a dilution of 1:50 in some fresh Luria-Bertani (LB) medium for 2 hours. The bacterial concentration is adjusted to […], and 50 μl is distributed in 96-well plates with an equal volume of peptides diluted half and half (256-0.5 μg/ml) in LB medium. […] To determine the minimum bactericide concentration, 10 μl from each well is spread on gelose plates in LB medium.
(§4) The results are expressed as the peptide concentration in MBC (μM).

Assay [5] relates to Pseudomonas aeruginosa (ATCC 27853). Description: microbe, parasite or virus in culture. The assay is classed as cell-based. As to conditions: ATCC 27853. The procedure: as §3, §4
Assay [6] relates to Escherichia coli (ATCC 25922). Description: microbe, parasite or virus in culture. The assay is classed as cell-based. To be noted: ATCC 25922; read-out: MBC. The procedure:
as §3, §4

Assay [7] relates to Staphylococcus aureus (ATCC 25923). Description: microbe, parasite or virus in culture. The assay is classed as cell-based. As to conditions: ATCC 25923. As to the method: as §3, §4
Assay [8] is described as follows: ELISA fixation of biotinylated peptides on sensitized plates. The assay is classed as binding. To be noted: read-out: avidity (Kd), quantity of peptides necessary to obtain 50% fixation, Chondroitin A; Table 5. (In general: An ELISA detects its analyte on a solid surface through an enzyme-linked reagent.)
The subject of assay [9] is H1299 cells. Description: Internalization of biotinylated peptide/S-PO complexes. As to conditions: peptide: S-PO complexes of 4:1, peptide concentration of 1 μg. The assay is classed as cell-based, human. The procedure, abridged: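 Biotinylated peptides precomplexed 15 min with streptavidin- or avidin-peroxidase at 25:1 or 4:1 peptide:conjugate molar ratio in PBS, diluted in complete medium and incubated with H1299 cells for 4 h. After washing and lysis, internalised peroxidase quantified with ortho-dianisidine/H2O2 at 450 nm against an S-PO standard curve, as pg per 10^4 cells.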

Assay [10] is described as follows: ELISA fixation of biotinylated peptides on sensitized plates. The assay is classed as binding. As to conditions: read-out: avidity (Kd), quantity of peptides necessary to obtain 50% fixation, Chondroitin B; Table 5.
For assay [11], the system named is Salmonella typhiTy2 (WHO). Description: microbe, parasite or virus in culture. To be noted: S. typhi-Ty2. The assay is classed as cell-based, S. typhi-Ty2. The procedure: as §3, §4
For assay [12], the system named is H1299 cells. Description: Internalization of covalent peptide-peroxidase conjugates. The assay is classed as cell-based, human. To be noted: Table 9; H1299; 0.2 μg/ml conjugate, 2 hours. The procedure, abridged: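 Peptides coupled via C-terminal cysteine to maleimide-activated peroxidase; uncoupled peptide removed by ultrafiltration. H1299 cells incubated 2 h with increasing conjugate concentrations, washed, lysed; internalized peptide quantified from lysate peroxidase against a conjugate standard curve, as pg/10^3 cells.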

Assay [13] is described as follows: ELISA fixation of biotinylated peptides on sensitized plates. The assay is classed as binding. As to conditions: read-out: avidity (Kd), quantity of peptides necessary to obtain 50% fixation, Heparin; Table 5. The procedure:
The capacity of peptides SEQ ID NO: 1 to 21 to attach themselves to DNA and heparin is evaluated on ELISA plates sensitized with DNA or heparin. Dilutions of biotinylated peptides are deposited on the plates and their fixation is shown using streptavidin conjugated with peroxidase. […] The avidity of each of the peptides for DNA or heparin is evaluated by the quantity (×10^−6 M) of peptides necessary to obtain 50% fixation.

The subject of assay [14] is 3T3. Description: Internalization of covalent peptide-peroxidase conjugates. The assay is classed as cell-based, mouse. To be noted: Table 9, 0.2 μg/ml conjugate, 2 hours. As to the method: (§5) To evaluate more directly the penetration of the peptides, avoiding the avidin-peroxidase bias, some of the peptides in sequences SEQ ID NO: 25 to 48 were conjugated covalently with cysteine in the C-terminal position of the peptide to peroxidase. The peptides were coupled with peroxidase in the following way:
(§6) One mg of peroxidase activated with maleimide (Sigma) in 100 μl of sodium phosphate buffer, NaCl 0.15 M, EDTA 5 mM, had 1 mg of peptide added to it. After 2 hours at laboratory temperature, β-mercaptoethanol is added to a final concentration of 1.5 mM for 15 minutes. The uncoupled peptide is eliminated by centrifugation on ultrafiltration membranes (cut-off threshold=30,000 Daltons, Sartorius), followed by three washings in sodium phosphate buffer 0.1 M, pH 7.4 containing 0.15 M NaCl.
(§7) It appears that the higher the concentration of peptide-peroxidase conjugate in the culture medium, the more the quantity internalized increases. To compare the penetration of the conjugates by cell type, the cells from different lines were incubated with 0.2 μg/ml of peptide-peroxidase conjugate for 2 hours, and the quantity of peroxidase dosed in the lysates. Table 9 and Table 9B below give the results expressed in pg/10^3 cells. The quantity of each peptide internalized in the different lines generally varies only from single to double.

The test system of assay [15] is gram-positive and gram-negative bacterial strains. Description: Antibacterial activity of cationic peptides, summary over strains. To be noted: summary of Table 29. The assay is classed as cell-based. As to the method: as §3
However, when peptide HPB13 (SEQ ID NO: 38) is coupled with peptide SEQ ID NO: 24, it enhances its activity by a factor of 50 to 100 (peptide SEQ ID NO: 45). […] None these peptides are active on gram-positive bacteria.

Assay [16] in a line: ELISA fixation of biotinylated peptides on sensitized plates. As to conditions: read-out: avidity (Kd), quantity of peptides necessary to obtain 50% fixation, Chondroitin C; Table 5. The assay is classed as binding.
For assay [17], the system named is HeLa. Description: Internalization of covalent peptide-peroxidase conjugates. The assay is classed as cell-based, human. As to conditions: Table 9, 0.2 μg/ml conjugate, 2 hours. The procedure: as §5, §6, §7
Assay [18] deals with HeLa cells. Description: Penetration of peroxidase transported by peptide-IgG anti-PO transporter. To be noted: via the transporter [peptide-IgG anti-PO]. The assay is classed as cell-based, human. The procedure:
Two mg of specific monoclonal IgG antibody of peroxidase or their fragment F(ab′)2 in 1 ml of potassium phosphate buffer 0.1 M, pH 7.4 are added to 110 μg of SMCC [succinimidyl 4-(N-maleimidomethyl)cyclohexane-1-carboxylate] in 11 μl of dimethylsulfoxide. The solution is incubated for 45 minutes at laboratory temperature. The excess reagent is eliminated by centrifugation on ultrafiltration membranes (cutoff threshold =10,000 Da, Vivascience), followed by three washings in sodium phosphate buffer 10 mM, pH 7 containing 0.5 M of NaCl and 5 mM of EDTA.
The peptide is then coupled in a molar ratio of 6 peptides to 1 IgG or 1 F(ab′)2 in the sodium phosphate buffer 10 mM, pH 7, containing 0.5 M of NaCl and 5 mM of EDTA for three hours at laboratory temperature. Then, the excess uncoupled peptide is totally eliminated by centrifugation on ultrafiltration membranes, as in the preceding step. These transporters [peptide-IgG anti-PO] are added to the peroxidase or the biotinylated peroxidase in some 0.5 M NaCl buffer. The solution is incubated for 1 hour at laboratory temperature. The molar ratio of this reaction is 2 PO/1 IgG or F(ab′)2. […]
To measure the quantity of PO internalized, the cells are trypsinized, transferred into microtubes and counted. […]

For “Natural cytochrome C: hemoprotein, single polypeptide chain of 104 amino acids”, the “penetration, intensity of the coloration” value in assay [1] (25 μg/ml) is listed as “−”; in assay [1] (50 μg/ml), “−”; in assay [1] (100 μg/ml) it was “−*”. Moreover, the % inhibition of growth (as a rule, how much of the control response was suppressed) in assay [2] (3 μg/ml) is given as 0%; in assay [2] (6 μg/ml), 0%; in assay [2] (12.5 μg/ml), 0%; in assay [2] (25 μg/ml), 0%; in assay [2] (50 μg/ml), 0%; in assay [2] (100 μg/ml) it was 0* %. In addition, the “% inhibition of growth” value was 0% in assay [3] (12.5 μg/ml); 0% in [3] (25 μg/ml); 10% in assay [3] (50 μg/ml); 19% in assay [3] (100 μg/ml); 12* % in [3] (200 μg/ml).

In the case of VKRGLKLVKRGLKLVKRGLKL [SEQ ID NO: 3], the MBC in assay [4] is over 106 µM; in [5] it was 26.5 µM; in assay [6], 13.25 µM; in assay [7] it was over 106 µM; in assay [11], 1.65 µM. Also, the Kd in assay [8] amounted to 37 nM; in assay [10], 41 nM; in assay [13] it was 41 nM; in assay [16] it was 35 nM. For the same molecule, the S-PO internalized in assay [9] is reported as 642 pg/10^4 cells. Also, the “Internalization of Peptide-peroxidase” value in [12] was 17.7 pg/10^3 cells; in [14], 24.6 pg/10^3 cells; in assay [17], 11.2 pg/10^3 cells. Further, the “bactericide / anti-microbial activity” value in assay [15] is reported as “has bactericide activity”.

B1: Peroxidase (PO): peroxidase transported by the transporter [peptide-IgG anti-PO] (protein)
chain: QLTPTFYDNSCPNVSNIVRDTIVNELRSDPRIAASILRLHFHDCFVNGCDASILLDNTTSFRTEKDAFGNANSARGFPVIDRMKAAVESACPRTVSCADLLTIAAQQSVTLAGGPSWRVPLGRRDSLQAFLDLANANLPAPFFTLPQLKDSFRNVGLNRSSDLVALSGGHTFGKNQCRFIMDRLYNFSNTGLPDPTLNTTYLQTLRGLCPLNGNLSALVDFDLRTPTIFDNKYYVNLEEQKGLIQSDQELFSSPNATDTIPLVRSFANSTQTFFNAFVEAMDRMGNITPLTGTQGQIRLNCRVVNSNS
Turning to B1, the “Quantity of molecules internalized” value in assay [18] is 2100 pg/10^4 cells.

B2: Biotinylated PO: biotinylated peroxidase transported by the transporter [peptide-IgG anti-PO] (protein)
chain: QLTPTFYDNSCPNVSNIVRDTIVNELRSDPRIAASILRLHFHDCFVNGCDASILLDNTTSFRTEKDAFGNANSARGFPVIDRMKAAVESACPRTVSCADLLTIAAQQSVTLAGGPSWRVPLGRRDSLQAFLDLANANLPAPFFTLPQLKDSFRNVGLNRSSDLVALSGGHTFGKNQCRFIMDRLYNFSNTGLPDPTLNTTYLQTLRGLCPLNGNLSALVDFDLRTPTIFDNKYYVNLEEQKGLIQSDQELFSSPNATDTIPLVRSFANSTQTFFNAFVEAMDRMGNITPLTGTQGQIRLNCRVVNSNS
With B2, the “Quantity of molecules internalized” value in assay [18] is on record as 1700 pg/10^4 cells.
